Results from patent EP1352247B1, “ASSAY METHODS FOR IDENTIFYING COMPOUNDS WHICH MAY PROTECT STRATIFIED SQUAMOUS EPITHELIUM AGAINST DAMAGE BY NOXIOUS SUBSTANCES” (The Administrators of the Tulane Educational Fund, priority 2000, dated 2002).
Blank lines part the entries; values can stand above or below the molecule they belong to.

Assays:
esophageal epithelium = conditions: cited from earlier work
[1] = target: T1, extracellular domain of human Uvomorulin/E-Cadherin (Homo sapiens, UniProt P12830); test: Human E-cadherin EIA kit: competition with Mab binding to the extracellular domain of E-cadherin; conditions: for % Binding: Mab binding vs vehicle control = 100
T1 construct: the approximately 80 kD extracellular domain of Uvomorulin/E-Cadherin provided in the E-cadherin EIA kit; purchased Zymed Laboratories, San Francisco, CA
T1 sequence (P12830 155-709 limits assumed): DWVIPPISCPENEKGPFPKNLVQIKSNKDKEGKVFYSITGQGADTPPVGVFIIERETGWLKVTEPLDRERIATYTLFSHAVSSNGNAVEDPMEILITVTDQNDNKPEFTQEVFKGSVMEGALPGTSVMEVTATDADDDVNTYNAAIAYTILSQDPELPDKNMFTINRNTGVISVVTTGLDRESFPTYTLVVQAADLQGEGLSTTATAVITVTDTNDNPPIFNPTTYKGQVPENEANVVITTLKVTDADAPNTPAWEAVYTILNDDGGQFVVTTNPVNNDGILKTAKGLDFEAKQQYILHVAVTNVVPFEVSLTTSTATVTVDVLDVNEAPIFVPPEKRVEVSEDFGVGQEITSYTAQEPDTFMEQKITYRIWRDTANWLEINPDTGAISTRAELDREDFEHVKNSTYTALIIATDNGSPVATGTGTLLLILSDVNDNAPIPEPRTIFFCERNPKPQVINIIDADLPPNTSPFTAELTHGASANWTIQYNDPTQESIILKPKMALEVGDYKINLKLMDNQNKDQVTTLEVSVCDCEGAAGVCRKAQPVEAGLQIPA
From the text: The kit enables the antigen to be exposed to agents or antibodies prior to exposure to the standard Mab to the extracellular domain of Uvomorulin/E-cadherin. The ability of the agent or antibody to block the binding of the Mab to the extracellular domain of Uvomorulin/E-cadherin can then be used to determine if competition for binding sites on the antigen has occurred. Comparative binding is based on the quantity of binding observed when the Mab to Uvomorulin/E-cadherin is placed in contact with antigen in the absence of prior exposure to test agent or antibody. The experimental control for test agents is vehicle (normal Ringer solution) and for monoclonal or polyclonal antibodies is an equivalent amount of nonspecific immune serum globulin (IgG). The quantity of binding of the Mab to Uvomorulin/E-cadherin to antigen in the absence of test agent or test antibody is labeled as control and whose value is normalized to 100%.
The Human E-cadherin EIA kit (Zymed Laboratories, San Francisco, CA) was used as in the method described in Example 5 to determine binding of test compounds, SITS, SOS, CDDD-1192, CDDD-1193 and 1,3-benzene disulfonic acid (1,3-BDSA) to the approximately 80 kD extracellular domain of Uvomorulin/E-Cadherin provided in the E-cadherin EIA kit. This was done by adding the extracellular domain of human Uvomorulin/E-Cadherin to a solution with varying concentrations of the compounds in the nanomolar to millimolar range or with vehicle (control, normal Ringer solution) for […]. Following incubation for 2 hrs, the solution is added to a solid phase microtiter plate, provided in the EIA kit, to which a mouse monoclonal anti-human Uvomorulin/E-cadherin antibody (Zymed Laboratories, San Francisco, CA) is bound. This permits antigen with epitopes unoccupied by test compound to bind to the plate. After washing the plate with Tris buffer containing 0.1 % Tween-20 (Promega, Madison, Wisconsin) and 5 mM calcium chloride, the second mouse monoclonal anti-human Uvomorulin/E-cadherin antibody labeled with peroxidase is used to tag the bound antigen. After an additional incubation for 1 hr and washing with Tris buffer, the peroxidase is detected with substrate (hydrogen peroxide and tetramethyl-benzidine in buffered solution, as included in the EIA test kit) by incubating for 15 min at room temperature and stopping of the reaction with 1N […]. […] The amount of Uvomorulin/E-cadherin is quantitated by measuring absorbance at 450 nm within an hour following development using an EIA plate reader (Vmax Plate Reader, Molecular Devices, Sunnyvale, CA). The degree of binding of a compound to the extracellular domain of Uvomorulin/E-cadherin is determined by the reduction in antigen detection in the plate exposed to test compound compared to that for the control plate (100%) where no compound was present (Table 2).

[2] = tested on: rabbit esophageal epithelium
Description: Sections of rabbit esophageal epithelium, mounted in Ussing chambers and stabilized for 45 min, were exposed both luminally and serosally to calcium-free solution containing EDTA, 3 mM.
Sections of rabbit esophageal epithelium were mounted in Ussing chambers and exposed luminally to trypsin, 0.01%, in the presence or absence of a calcium-free bathing solution.
Sections of rabbit esophageal epithelium were mounted in Ussing chambers and exposed luminally to either SITS, 4 mM, or vehicle (Ringer) as control for 30 min.

[3] = tested on: rabbit esophageal epithelium; test: Junctional resealing (recovery of R after calcium restoration or return to isoosmolality) in Ussing chambers; type: cell-based; conditions: luminal 4 mM for 30 min and during calcium-free period; after restoration of calcium (0 mM SITS), n=3
From the text: When calcium-containing (normal Ringer) solution was restored to the bathing solutions after 1, 2, or 4 hrs of calcium-free exposure, there was a progressive return of R toward initial baseline values, with complete reversibility observed for tissue exposed to calcium-free solution for 1 hr and 2 hr exposures and an 80% recovery in R for tissue exposed to calcium-free for 4 hrs within 1 hr of restoring calcium to the baths.
Sections of rabbit esophageal epithelium prepared as in Example 1 were exposed luminally and serosally to a calcium-free solution containing 3 mM EDTA to open the junctions as shown by the progressive decline in R to 60±4% and 65±4% of initial R for experimental and control tissues, respectively, by 2 hrs (n = 8 for each group, p > 0.05). Tissues were then treated luminally for 20 min with either 10 µg/ml of a monoclonal antibody (Mab) to Uvomorulin/E-cadherin (Sigma Chemical, St. Louis, MO) or, as control, to 10 µg/ml of nonspecific immune serum globulin (IgG). Following exposure to Mab or IgG, a calcium-containing (normal Ringer) solution was restored to the bathing solutions and the recovery of R monitored over time.
The intercellular junctions of stratified squamous epithelium can also be opened by exposure to hypertonic saline. […]

Compound: O=S(=O)(O)c1cccc(S(=O)(=O)O)c1 [1,3 BDSA, 1,3-benzene disulfonic acid]
- effect against acid injury (esophageal epithelium; 4 mM, as shown in U.S. Patent No. 5,189,056 and 5,374,537): ineffective against acid injury
- % Binding ([1]; agent 4 mM): 104±3%

- % Binding ([1]; agent 0.4 uM): 103±6%
- % Binding ([1]; agent 4 mM): 77±13 %
Compound: O=S(=O)(O)OCC(OS(=O)(=O)O)C(Oc1ccccc1)c1ccc(N=C=S)cc1 (centres unmarked) [CDDD-1192, disodium 3-(4-isothiocyanatophenyl)-3 phenoxypropane-1,2-disulfate]

- binding to the extracellular domain of Uvomorulin/E-cadherin / inhibition of Mab binding (in words) [1]: dose-dependently binds
- % Binding ([1]; agent 4 mM): 83±0.3 %
- % Binding ([1]; agent 10 mM): 76±0.3 %
Compound: O=S(=O)(O)OC[C@H]1O[C@@](COS(=O)(=O)O)(O[C@H]2O[C@H](COS(=O)(=O)O)[C@@H](OS(=O)(=O)O)[C@H](OS(=O)(=O)O)[C@H]2OS(=O)(=O)O)[C@@H](OS(=O)(=O)O)[C@@H]1OS(=O)(=O)O [SOS, sucrose octasulfate]
- protection against acid-induced injury, reversibility (esophageal epithelium): irreversibly protect

Compound: O=C(O)CN(CCN(CC(=O)O)CC(=O)O)CC(=O)O [EDTA]
- effect on R ([2]; 3 mM alone, over the described time frame (up to 4 hrs)): no effect on R

Compound: O=S(=O)(O)OCC(OS(=O)(=O)O)C(Oc1ccc(N=C=S)cc1)c1ccc(N=C=S)cc1 (centres unmarked) [CDDD-1193, disodium 3-(4-isothiocyanatophenoxy)-3-(4-isothiocyanatophenyl)propane-1,2-disulfate]
- % Binding ([1]; agent 40 nM): 110±6%
- % Binding ([1]; agent 40 uM): 83±3 %
- % Binding ([1]; agent 4 mM): 38±0.75 %

Compound: CC(=O)Nc1ccc(C=Cc2ccc(N=C=S)cc2S(=O)(=O)O)c(S(=O)(=O)O)c1 [SITS, 4-acetamido-4'-isothiocyano-2,2'-stilbene disulfonate]
- R declined to ([2]; calcium-free solution (3 mM EDTA) with 4 mM SITS, over 2 hr): 68±3%
- % Binding ([1]; agent 40 uM): 77±3 %
- % Binding ([1]; agent 4 mM): 26±3 %
- % Binding ([1]; agent 8 mM): 20±3 %
- recovery of R [3]: 75±3%
